# Test system: GM1 production in Jurkat cells
# Experiment: cells
# Type: cell-based
# Conditions: not given
row,Structure (SMILES),IC50
1,"CC1(C)Cc2ccc(-c3cccc(OC(F)(F)F)c3)cc2C1NC(=O)O[C@@H]1CN2CCC1CC2 (stereo partly drawn) [Example 56, (S)-quinuclidin-3-yl (2,2-dimethyl-6-(3-(trifluoromethoxy)phenyl)-2,3-dihydro-1H-inden-1-yl)carbamate]",210 nM

# Same assay, conditions: Homo sapiens, Jurkat, 72 h
row,Structure (SMILES),IC50
1,"O=C(NC1CCc2ccc(-c3cccc(Cl)c3)cc21)O[C@@H]1CN2CCC1CC2 (stereo partly drawn) [Example 30, (S)-quinuclidin-3-yl (6-(3-chlorophenyl)-2,3-dihydro-1H-inden-1-yl)carbamate]",107 nM
2,"COc1cc2c(cc1-c1ccc(C(C)C)cc1)CC(C)(C)C2NC(=O)O[C@@H]1CN2CCC1CC2 (stereo partly drawn) [Example 314, (S)-quinuclidin-3-yl (5-(4-isopropylphenyl)-6-methoxy-2,2-dimethyl-2,3-dihydro-1H-inden-1-yl)carbamate]",7.7 nM
3,"CN(C)c1cc(-c2ccc3c(c2)CC(C)(C)C3NC(=O)O[C@@H]2CN3CCC2CC3)ccc1F (stereo partly drawn) [Example 129, (S)-quinuclidin-3-yl (5-(3-(dimethylamino)-4-fluorophenyl)-2,2-dimethyl-2,3-dihydro-1H-inden-1-yl)carbamate]",36.8 nM
4,"CCCCOc1cccc(-c2ccc3c(c2)CC(C)(C)C3NC(=O)O[C@@H]2CN3CCC2CC3)c1 (stereo partly drawn) [Example 218, (S)-quinuclidin-3-yl (5-(3-butoxyphenyl)-2,2-dimethyl-2,3-dihydro-1H-inden-1-yl)carbamate]",6.7 nM
5,"COc1cccc(-c2ccc3c(c2)CC(C)(C)C3NC(=O)O[C@@H]2CN3CCC2CC3)c1 (stereo partly drawn) [Example 103, (S)-quinuclidin-3-yl (5-(3-methoxyphenyl)-2,2-dimethyl-2,3-dihydro-1H-inden-1-yl)carbamate]",19.5 nM
6,"CC1(C)CC(NC(=O)O[C@@H]2CN3CCC2CC3)c2ccc(-c3cccc(C(F)(F)F)c3)cc21 (stereo partly drawn) [Example 401, (S)-quinuclidin-3-yl (3,3-dimethyl-5-(3-(trifluoromethyl)phenyl)-2,3-dihydro-1H-inden-1-yl)carbamate]",15.1 nM
7,"CC(C)c1cccc(-c2ccc3c(c2)CC(C)(C)C3NC(=O)O[C@@H]2CN3CCC2CC3)c1 (stereo partly drawn) [Example 109, (S)-quinuclidin-3-yl (5-(3-isopropylphenyl)-2,2-dimethyl-2,3-dihydro-1H-inden-1-yl)carbamate]",7.8 nM
8,"CCCOc1ccc(-c2ccc3c(c2)CC(C)(C)C3NC(=O)O[C@@H]2CN3CCC2CC3)cc1Cl (stereo partly drawn) [Example 207, (S)-quinuclidin-3-yl (5-(3-chloro-4-propoxyphenyl)-2,2-dimethyl-2,3-dihydro-1H-inden-1-yl)carbamate]",58.6 nM
9,"CC1(C)Cc2cc(-c3cccc4cnccc34)ccc2C1NC(=O)O[C@@H]1CN2CCC1CC2 (stereo partly drawn) [Example 141, (S)-quinuclidin-3-yl (5-(isoquinolin-5-yl)-2,2-dimethyl-2,3-dihydro-1H-inden-1-yl)carbamate]",39.9 nM
10,"COCCOc1ccccc1-c1ccc2c(c1)CC(C)(C)C2NC(=O)O[C@@H]1CN2CCC1CC2 (stereo partly drawn) [Example 99, (S)-quinuclidin-3-yl (5-(2-(2-methoxyethoxy)phenyl)-2,2-dimethyl-2,3-dihydro-1H-inden-1-yl)carbamate]",22.2 nM
11,"CC1(C)Cc2cc(-c3cc4ccccc4s3)ccc2C1NC(=O)O[C@@H]1CN2CCC1CC2 (stereo partly drawn) [Example 186, (S)-quinuclidin-3-yl (5-(benzo[b]thiophen-2-yl)-2,2-dimethyl-2,3-dihydro-1H-inden-1-yl)carbamate]",82.6 nM
12,"CC1(C)Cc2cc(-c3ccc4nccnc4c3)ccc2C1NC(=O)O[C@@H]1CN2CCC1CC2 (stereo partly drawn) [Example 191, (S)-quinuclidin-3-yl (2,2-dimethyl-5-(quinoxalin-6-yl)-2,3-dihydro-1H-inden-1-yl)carbamate]",123 nM
13,"CCCc1ccc(-c2ccc3c(c2)CC(CC)(CC)C3NC(=O)O[C@@H]2CN3CCC2CC3)cc1 (stereo partly drawn) [Example 278, (S)-quinuclidin-3-yl (2,2-diethyl-5-(4-propylphenyl)-2,3-dihydro-1H-inden-1-yl)carbamate]",6 nM
14,"COc1c(C)cc(-c2cc3c(cc2F)C(NC(=O)O[C@@H]2CN4CCC2CC4)C(C)(C)C3)cc1C (stereo partly drawn) [Example 366, (S)-quinuclidin-3-yl (6-fluoro-5-(4-methoxy-3,5-dimethylphenyl)-2,2-dimethyl-2,3-dihydro-1H-inden-1-yl)carbamate]",79.4 nM
15,"CCC1(CC)Cc2cc(-c3cccc(OC)c3)ccc2C1NC(=O)O[C@@H]1CN2CCC1CC2 (stereo partly drawn) [Example 289, (S)-quinuclidin-3-yl (2,2-diethyl-5-(3-methoxyphenyl)-2,3-dihydro-1H-inden-1-yl)carbamate]",7.4 nM
16,"CCC1(CC)Cc2cc(-c3ccc(OC)cc3F)ccc2C1NC(=O)O[C@@H]1CN2CCC1CC2 (stereo partly drawn) [Example 310, (S)-quinuclidin-3-yl (2,2-diethyl-5-(2-fluoro-4-methoxyphenyl)-2,3-dihydro-1H-inden-1-yl)carbamate]",16.3 nM
17,"O=C(NC1CCc2cc(-c3cccc(OC(F)(F)F)c3)ccc21)O[C@@H]1CN2CCC1CC2 (stereo partly drawn) [Example 8, (S)-quinuclidin-3-yl (5-(3-(trifluoromethoxy)phenyl)-2,3-dihydro-1H-inden-1-yl)carbamate]",27.4 nM

row,Structure (SMILES),IC50
1,"CC1(C)Cc2cc(-c3cc(C(F)(F)F)cc(C(F)(F)F)c3)ccc2C1NC(=O)O[C@@H]1CN2CCC1CC2 (stereo partly drawn) [Example 258, (S)-quinuclidin-3-yl (5-(3,5-bis(trifluoromethyl)phenyl)-2,2-dimethyl-2,3-dihydro-1H-inden-1-yl)carbamate]",17.4 nM
2,"COc1ccc(-c2ccc3c(c2)CC(C)(C)C3NC(=O)O[C@@H]2CN3CCC2CC3)c(C)c1 (stereo partly drawn) [Example 180, (S)-quinuclidin-3-yl (5-(4-methoxy-2-methylphenyl)-2,2-dimethyl-2,3-dihydro-1H-inden-1-yl)carbamate]",28.1 nM
3,"COc1cccc(OC)c1-c1ccc2c(c1)CC(C)(C)C2NC(=O)O[C@@H]1CN2CCC1CC2 (stereo partly drawn) [Example 168, (S)-quinuclidin-3-yl (5-(2,6-dimethoxyphenyl)-2,2-dimethyl-2,3-dihydro-1H-inden-1-yl)carbamate]",9.6 nM
4,"CCC1(CC)Cc2cc(-c3ccc(C4CC4)cc3)ccc2C1NC(=O)O[C@@H]1CN2CCC1CC2 (stereo partly drawn) [Example 281, (S)-quinuclidin-3-yl (5-(4-cyclopropylphenyl)-2,2-diethyl-2,3-dihydro-1H-inden-1-yl)carbamate]",5 nM
5,"Cc1c(Cl)cccc1-c1ccc2c(c1)CC(C)(C)C2NC(=O)O[C@@H]1CN2CCC1CC2 (stereo partly drawn) [Example 253, (S)-quinuclidin-3-yl (5-(3-chloro-2-methylphenyl)-2,2-dimethyl-2,3-dihydro-1H-inden-1-yl)carbamate]",37.2 nM
6,"CCC1(CC)Cc2cc(-c3ccc(OC(C)C)c(Cl)c3)ccc2C1NC(=O)O[C@@H]1CN2CCC1CC2 (stereo partly drawn) [Example 311, (S)-quinuclidin-3-yl (5-(3-chloro-4-isopropoxyphenyl)-2,2-diethyl-2,3-dihydro-1H-inden-1-yl)carbamate]",27 nM
7,"CCC1(CC)Cc2cc(-c3c(OC)cccc3OC)ccc2C1NC(=O)O[C@@H]1CN2CCC1CC2 (stereo partly drawn) [Example 300, (S)-quinuclidin-3-yl (5-(2,6-dimethoxyphenyl)-2,2-diethyl-2,3-dihydro-1H-inden-1-yl)carbamate]",23 nM
8,"CCOc1cccc(-c2cc3c(cc2OC)C(NC(=O)O[C@@H]2CN4CCC2CC4)C(C)(C)C3)c1 (stereo partly drawn) [Example 339, (S)-quinuclidin-3-yl (5-(3-ethoxyphenyl)-6-methoxy-2,2-dimethyl-2,3-dihydro-1H-inden-1-yl)carbamate]",62.5 nM
9,"CCCOc1c(C)cc(-c2cc3c(cc2OC)C(NC(=O)O[C@@H]2CN4CCC2CC4)C(C)(C)C3)cc1C (stereo partly drawn) [Example 321, (S)-quinuclidin-3-yl (5-(3,5-dimethyl-4-propoxyphenyl)-6-methoxy-2,2-dimethyl-2,3-dihydro-1H-inden-1-yl)carbamate]",31.9 nM
10,"COc1cc2c(cc1-c1ccc(OCC3CC3)nc1)CC(C)(C)C2NC(=O)O[C@@H]1CN2CCC1CC2 (stereo partly drawn) [Example 326, (S)-quinuclidin-3-yl (5-(6-(cyclopropylmethoxy)pyridin-3-yl)-6-methoxy-2,2-dimethyl-2,3-dihydro-1H-inden-1-yl)carbamate]",10.8 nM
11,"CCOc1ccc(-c2cc3c(cc2OC)C(NC(=O)O[C@@H]2CN4CCC2CC4)C(C)(C)C3)cc1F (stereo partly drawn) [Example 347, (S)-quinuclidin-3-yl (5-(4-ethoxy-3-fluorophenyl)-6-methoxy-2,2-dimethyl-2,3-dihydro-1H-inden-1-yl)carbamate]",46.8 nM
12,"CCOc1cc(C(F)(F)F)ccc1-c1ccc2c(c1)CC(C)(C)C2NC(=O)O[C@@H]1CN2CCC1CC2 (stereo partly drawn) [Example 250, (S)-quinuclidin-3-yl (5-(2-ethoxy-4-(trifluoromethyl)phenyl)-2,2-dimethyl-2,3-dihydro-1H-inden-1-yl)carbamate]",33 nM
13,"CCC1(CC)Cc2cc(-c3ccc4c(c3)OC(F)(F)O4)ccc2C1NC(=O)O[C@@H]1CN2CCC1CC2 (stereo partly drawn) [Example 309, (S)-quinuclidin-3-yl (5-(2,2-difluorobenzo[d][1,3]dioxol-5-yl)-2,2-diethyl-2,3-dihydro-1H-inden-1-yl)carbamate]",11.2 nM
14,"CCCCOc1ccc(-c2ccc3c(c2)CC(C)(C)C3NC(=O)O[C@@H]2CN3CCC2CC3)cn1 (stereo partly drawn) [Example 266, (S)-quinuclidin-3-yl (5-(6-butoxypyridin-3-yl)-2,2-dimethyl-2,3-dihydro-1H-inden-1-yl)carbamate]",4.7 nM
15,"CCc1cccc(-c2ccc3c(c2)CC(CC)(CC)C3NC(=O)O[C@@H]2CN3CCC2CC3)c1 (stereo partly drawn) [Example 292, (S)-quinuclidin-3-yl (2,2-diethyl-5-(3-ethylphenyl)-2,3-dihydro-1H-inden-1-yl)carbamate]",7.8 nM
16,"COc1ccc(-c2ccc3c(c2)CC(C)(C)C3NC(=O)O[C@@H]2CN3CCC2CC3)c(F)c1 (stereo partly drawn) [Example 128, (S)-quinuclidin-3-yl (5-(2-fluoro-4-methoxyphenyl)-2,2-dimethyl-2,3-dihydro-1H-inden-1-yl)carbamate]",18.4 nM
17,"CCC1(CC)Cc2cc(-c3ccc(F)cc3)ccc2C1NC(=O)O[C@@H]1CN2CCC1CC2 (stereo partly drawn) [Example 276, (S)-quinuclidin-3-yl (2,2-diethyl-5-(4-fluorophenyl)-2,3-dihydro-1H-inden-1-yl)carbamate]",33.2 nM
